The results in this text go back to publication PMC8775721, “Pharmacological Dissection of the Crosstalk between NaV and CaV Channels in GH3b6 Cells” (International Journal of Molecular Sciences, 2022).

This assay has as its target T1, NaV1.3 (Rattus norvegicus, UniProt P08104).
T1 construct: gene Scn3a
The assay is described as follows: manual whole-cell patch-clamp of endogenous INa in GH3b6 cells. It is filed as cell-based. The settings on record: read-out: % reduction of INa amplitude at 1 μM. On the technique in general: The patch-clamp technique gives a direct electrical read-out from membranes.

T1 sequence (P08104 whole entry): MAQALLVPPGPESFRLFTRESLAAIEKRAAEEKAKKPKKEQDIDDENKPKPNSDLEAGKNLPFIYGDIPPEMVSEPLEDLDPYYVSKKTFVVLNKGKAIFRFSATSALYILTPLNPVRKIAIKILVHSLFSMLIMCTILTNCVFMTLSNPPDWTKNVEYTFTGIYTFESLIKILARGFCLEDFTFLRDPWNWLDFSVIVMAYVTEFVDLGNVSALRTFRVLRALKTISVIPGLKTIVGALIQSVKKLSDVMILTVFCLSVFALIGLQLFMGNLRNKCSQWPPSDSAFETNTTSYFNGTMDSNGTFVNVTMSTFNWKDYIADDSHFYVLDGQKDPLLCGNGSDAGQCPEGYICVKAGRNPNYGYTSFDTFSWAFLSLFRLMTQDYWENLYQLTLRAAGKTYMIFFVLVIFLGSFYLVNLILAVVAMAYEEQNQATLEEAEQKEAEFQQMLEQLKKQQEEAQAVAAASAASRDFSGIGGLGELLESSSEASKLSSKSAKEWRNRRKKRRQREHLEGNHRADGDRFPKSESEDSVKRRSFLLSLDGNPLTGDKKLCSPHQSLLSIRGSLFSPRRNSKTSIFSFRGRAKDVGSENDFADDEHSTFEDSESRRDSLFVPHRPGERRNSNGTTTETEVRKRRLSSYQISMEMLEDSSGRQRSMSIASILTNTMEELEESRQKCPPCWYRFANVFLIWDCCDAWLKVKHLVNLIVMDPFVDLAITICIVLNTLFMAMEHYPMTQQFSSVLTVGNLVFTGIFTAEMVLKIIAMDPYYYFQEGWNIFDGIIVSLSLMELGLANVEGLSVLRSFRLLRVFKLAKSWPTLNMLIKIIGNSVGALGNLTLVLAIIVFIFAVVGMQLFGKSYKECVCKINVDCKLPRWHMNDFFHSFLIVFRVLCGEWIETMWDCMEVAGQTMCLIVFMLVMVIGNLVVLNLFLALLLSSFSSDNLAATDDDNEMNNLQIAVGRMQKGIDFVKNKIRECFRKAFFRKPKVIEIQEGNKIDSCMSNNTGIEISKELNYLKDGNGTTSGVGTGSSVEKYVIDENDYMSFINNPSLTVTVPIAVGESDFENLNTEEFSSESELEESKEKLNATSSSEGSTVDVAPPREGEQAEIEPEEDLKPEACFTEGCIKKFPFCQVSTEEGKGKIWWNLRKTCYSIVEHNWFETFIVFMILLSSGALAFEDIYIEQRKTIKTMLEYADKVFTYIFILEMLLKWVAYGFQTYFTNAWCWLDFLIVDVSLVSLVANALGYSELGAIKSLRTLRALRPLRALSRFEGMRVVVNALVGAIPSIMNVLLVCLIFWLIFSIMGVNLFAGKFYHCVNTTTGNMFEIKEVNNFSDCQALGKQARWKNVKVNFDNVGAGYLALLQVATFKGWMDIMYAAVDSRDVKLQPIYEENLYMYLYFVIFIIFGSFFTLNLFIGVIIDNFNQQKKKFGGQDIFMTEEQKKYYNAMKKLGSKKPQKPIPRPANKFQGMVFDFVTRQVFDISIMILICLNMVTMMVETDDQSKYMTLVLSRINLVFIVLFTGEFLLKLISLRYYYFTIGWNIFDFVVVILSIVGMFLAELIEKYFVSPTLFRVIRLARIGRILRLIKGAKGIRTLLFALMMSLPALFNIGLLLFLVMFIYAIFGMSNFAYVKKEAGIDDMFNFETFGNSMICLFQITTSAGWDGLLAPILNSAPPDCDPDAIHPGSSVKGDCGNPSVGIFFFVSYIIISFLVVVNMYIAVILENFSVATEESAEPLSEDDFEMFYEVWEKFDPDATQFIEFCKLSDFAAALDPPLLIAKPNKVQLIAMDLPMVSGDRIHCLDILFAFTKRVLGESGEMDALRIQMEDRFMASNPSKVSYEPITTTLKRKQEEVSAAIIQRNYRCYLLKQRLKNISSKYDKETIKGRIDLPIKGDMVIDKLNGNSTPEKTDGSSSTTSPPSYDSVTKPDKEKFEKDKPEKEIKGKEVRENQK

On to `O=C(Nc1ccc(S(=O)(=O)Nc2nccs2)cc1)C(c1ccccc1)c1ccccc1` [ICA-121431], for which the inhibition at 1 µM is 50%.
